Non-standard residues stand in square brackets, D forms with d. No end group written: not given here.
Columns and labels:
Type in all cases: in vivo
[1] = tested on: WD-induced hepatic steatosis; experiment: Liver H&E/ORO histology and hepatic lipid (TG, TC) quantification in WD-fed apoE−/− mice; details: for Hepatic steatosis by H&E staining / HS by histology and lipid quantification: apoE−/− mice on WD; for Hepatic steatosis by H&E staining: 12 weeks; for HS by histology and lipid quantification: endpoint (FIG. 16A-C); for Hepatic TC, decreased by / Hepatic TG, decreased by: extracted hepatic lipids, endpoint, vs WD+H2O
Text: (§1) Eight-week-old male apolipoprotein E-deficient (apoE−/−) mice (B6.129P2-Apoetm1Unc/J, Stock No.: 002052) were obtained from Jackson Laboratories. Mice were fed Western diet (WD, 42% of calories from fat and 0.2% cholesterol by weight, Envigo TD.88137). After one week of WD feeding, blood was carefully collected from the facial vein to determine baseline plasma levels of total cholesterol (TC). […] All mice were maintained on a 12-hour light/dark cycle and had ad libitum access to food and water. Body weight and food intake were measured every one and three weeks, respectively
Histology processing was performed by the In Vivo Animal Core (IVAC) Histology Laboratory within the Unit for Laboratory Animal Medicine (ULAM) of the University of Michigan. Formalin-fixed tissues were processed through graded alcohols and cleared with xylene followed by infiltration with molten paraffin using an automated VIP5 or VIP6 tissue processor (TissueTek, Sakura-Americas). Following paraffin embedding using a Histostar Embedding Station (ThermoFisher Scientific), tissues were sectioned on a M 355S rotary microtome (ThermoFisher Scientific) at 4 μm thickness and mounted on glass slides. Following deparaffinization and hydration with xylene and graded alcohols, slides were stained for hematoxylin and eosin (H&E) using Harris hematoxylin (ThermoFisher Scientific, Cat #842), differentiated with Clarifier (ThermoFisher Scientific, Cat #7401), blued with bluing reagent (ThermoFisher Scientific, Cat #7301), stained with eosin Y, alcoholic (ThermoFisher Scientific, Cat #832), then dehydrated and cleared through graded alcohols and xylene and coverslipped with Micromount (Leica cat #3801731) using a Leica CV5030 automatic coverslipper. Immunohistochemical staining was performed on an IntelliPATH FLX automated immunohistochemical stainer (Biocare Medical, Cat #IPS0001US) and included blocking for endogenous peroxidases and non-specific binding, detection using a horseradish peroxidase biotin-free polymer based commercial detection system, disclosure with diaminobenzidine chromogen, and nuclear counterstaining with hematoxylin. Specific to F4/80, (Bio-Rad ABD Serotec, Cat #MCA497), the rat monoclonal primary antibody (clone CI:A3-1) was diluted to 1:400 in DaVinci Diluent (Biocare Medical, Cat #PD900) and incubated for 60 min followed by detection using Rat-on-Mouse HRP-Polymer, (Biocare Medical, Cat #RT517) 2-step probe-polymer incubation for 10 and 30 min respectively.
Livers were rapidly removed from the euthanized mice and kept at −80° C. Frozen liver samples (approximately 100 mg) were homogenized in PBS and centrifuged (14,000 RPM, 20 min). The supernatants were collected and analyzed for protein content by the Bio-Rad Bradford assay. To assess liver lipid composition, lipids were extracted from the supernatants using hexane ([…], 32293, Sigma-Aldrich) and isopropanol (≥99.5%, A426-4, Fisher Scientific) at a 3:2 ratio (v:v), and the hexane phase was left for evaporation for 48 h. The amount of liver TG or TC was determined spectrophotometrically using commercially available kits (Wako Chemicals). Data were normalized to protein levels and presented as μg TG or TC/mg protein.
Livers were rapidly removed from the euthanized mice, snap-frozen with liquid nitrogen, and kept at −80° C. Frozen liver samples (100 mg) were homogenized in PBS and centrifuged (14,000 RPM, 20 min). The supernatants were collected and analyzed for protein content using Bio-Rad Bradford assay. To assess liver lipid composition, lipids were extracted from the supernatants using hexane (≥99%, Sigma-Aldrich 32293) and isopropanol (≥99.5%, Fisher Scientific A428-4) at a 3:2 ratio (v:v), and the hexane phase was left for evaporation for 48 h. […] Liver diacylglycerols (DAG) were determined using ELISA Kit (Aviva Systems Biology, OKEH02607), according to the manufacturer's instructions. Hepatic TG, TC and DAG data were normalized to protein levels.

[2] = tested on: plasma lipids, adipokines and cytokines; experiment: Plasma lipids, adipokines and cytokines in WD-fed apoE−/− mice; details: for Time-dependent increase in plasma TC (baseline to endpoint): 1 week WD baseline vs 12 weeks of treatment; for Endpoint plasma HDL / Endpoint plasma LDL, reduced by / Endpoint plasma TC, reduced by: 6 hour fast; for Endpoint plasma HDL / Endpoint plasma LDL, reduced by / Endpoint plasma TC, reduced by / Plasma levels of glycine-containing tripeptide molecule, lower by: vs WD+H2O; for Plasma levels of glycine-containing tripeptide molecule, lower by: 12 weeks, glycine 0.67, DT-109/DT-110 1 mg/g; for Plasma HDL (lipid profile): endpoint (FIG. 15I); for Plasma glycine-containing tripeptide molecule: endpoint (FIG. 15K)
Text: as §1
Plasma levels of glycine tripeptide molecule, resistin, interleukin-6 (IL-6) and monocyte chemoattractant protein-1 (MCP1) were measured with a Luminex 200 chemistry analyzer (Luminex Corporation) at the Chemistry Laboratory of the MDRC using manufacturer-provided assay reagents and protocols (Millipore Multiplex, MMHMAG-44K). […]

atherosclerotic lesions = experiment: Analysis of atherosclerotic lesions (Oil Red O, en face aorta) in WD-fed apoE−/− mice; details: apoE−/− mice on WD, 12 weeks; vs WD+H2O
Text: as §1
After collection of blood, the mice were perfused with 20 mL of saline solution through the heart, followed by 20 mL of 37% formalin. The mice were fixed with formalin and the whole aortic tree was dissected under a surgical microscope. Next, the aortic trees were stained with Oil Red O solution (0.2% Oil Red O (w/v) in 3.5:1 of methanol:1N NaOH) for 50 min, followed by 70% ethanol for 30 min. Aortic trees were then kept in DDW. The aortic trees were then cleared of adhering adipose and connective tissues, and longitudinally opened with Vannas scissors to expose the atherosclerotic lesions. Images of whole aortic trees were obtained using a digital camera, and the percentage of the plaque area stained by Oil Red O with respect to the total luminal surface area was quantified with ImageJ analysis software (http://imagej.nih.gov/ij/).

Row | Molecule | Hepatic steatosis by H&E staining [1] | HS by histology and lipid quantification [1] | Hepatic TC, decreased by [1] | Hepatic TG, decreased by [1] | Time-dependent increase in plasma TC (baseline to endpoint) [2] | Endpoint plasma HDL [2] | Endpoint plasma LDL, reduced by [2] | Endpoint plasma TC, reduced by [2] | Plasma levels of glycine-containing tripeptide molecule, lower by ([2]; apoE−/− mice on WD) | Plasma HDL (lipid profile) ([2]; apoE−/− mice on WD) | Plasma glycine-containing tripeptide molecule ([2]; apoE−/− mice on WD) | Plasma MCP1 levels ([2]; endpoint) | Total atherosclerotic plaques (en face aortic lesions, Oil Red O), reduction by (atherosclerotic lesions) | Plasma TC and LDL (lipid profile) ([2]; apoE−/− mice on WD, DT-109 1 mg/g/day, endpoint)
1 | NCC(=O)O [glycine, reference compound] | abolished | reduced HS | 76% | 74% | significantly attenuated | 35% | 30% | 19% | 53% | reduction in HDL | reduced | significantly reduced | 48% | 
2 | CC(C)C[C@H](N)C(=O)O [leucine] | marked microvesicular and macrovesicular steatosis |  | no significant effects | no significant effects |  |  |  |  |  |  |  |  | but not in mice treated with leucine | 
3 | Gly-Gly-Leu [DT-109] | abolished | reduced HS | 71% | 73% | significantly attenuated | preserved | 38% | 25% | 62% | without the reduction in HDL | reduced | significantly reduced | 62% | lowest TC and LDL
4 | Gly-Gly-[dL] [DT-110] | abolished |  | 63% | 68% |  |  |  |  | 56% |  |  | significantly reduced | 49% | 
